Details: in water

CC(C)(C)[C@H](O)[C@H](Cc1ccc(Cl)cc1)n1cncn1 (racemic)
Details | solubility (mole fraction)
278.15 K | 3.96e-05
280.65 K | 5.22e-05
283.15 K | 6.56e-05
285.65 K | 7.76e-05
288.15 K | 8.75e-05
290.65 K | 0.000111
293.15 K | 0.000146
295.65 K | 0.000181
298.15 K | 0.000231
300.65 K | 0.000295
303.15 K | 0.000346
305.65 K | 0.000408
308.15 K | 0.000458
310.65 K | 0.00054
313.15 K | 0.000626
